{
  "source": "patent US20060035905A1",
  "about": "“Formulations of phosphodiesterase 5 inhibitors and methods of use” (Becton, Dickinson and Company, priority 2004, published 2006)",
  "key": {"[1]": {"assay": "in vivo", "parameters": "species or system Sprague-Dawley rats", "settings": "rat", "method": "Animal surgery: The rat's femoral vein was cannulated for blood sampling for every group. For IN rats, an incision was made in the trachea and a polypropylene tube was inserted as an airway. To seal the pass way between the nasal cavity and trachea, a sealed tube was inserted through the same incision into the posterior of nasal cavity. Finally the nasopalatine was closed with an adhesive.\nBlood samples were drawn from the femoral vein at predetermined time points.\n20 μl of 12% perchloric acid was added to 80 μl rat serum followed by vortexing. Then 100 μl of water was added to achieve the sample volume required by HPLC assay."}, "[2]": {"settings": "for Clearance: dose normalized; for Bioavailability: versus IV mesylate"}, "[3]": {"settings": "IV, up to last sampling time point"}},
  "note": "Read-outs that look alike come from different tables or passages of the source. Marks after values point to notes of the source that are not given here.",
  "data": [
    {"molecule": "CCCc1nn(C)c2c(=O)[nH]c(-c3cc(S(=O)(=O)N4CCN(C)CC4)ccc3OCC)nc12", "note": "[sildenafil]", "values": [
      {"measurement": "Cmax", "setting": "[1]; Sprague-Dawley", "value": 547, "unit": "ng/mL"},
      {"measurement": "concentration at 5 min", "setting": "[1]; Sprague-Dawley", "value": 428, "unit": "ng/mL"},
      {"measurement": "time of maximum systemic concentration", "setting": "[1]; Sprague-Dawley", "value": "around 15 min"},
      {"measurement": "time of peak serum concentration", "setting": "[1]; Sprague-Dawley", "value": "approximately 10 minutes"},
      {"measurement": "Cmax", "setting": "[1]; Sprague-Dawley, Cmax", "value": "~1000", "unit": "ng/mL"},
      {"measurement": "maximum serum drug level (in words)", "setting": "[1]; sc", "value": "comparable maximum serum drug level to the ID group"},
      {"measurement": "time of Cmax", "setting": "[1]; sc", "value": "30 to 60", "unit": "min"}
    ]},
    {"molecule": "sildenafil mesylate", "values": [
      {"measurement": "MRT", "setting": "[2]; ID 1.5 mm", "value": 1.90, "unit": "h"},
      {"measurement": "Terminal t½", "setting": "[2]; ID 1.5 mm", "value": 2.27, "unit": "h"},
      {"measurement": "Tmax", "setting": "[2]; ID 1.5 mm", "value": "0.083^c hr"},
      {"measurement": "Clearance", "setting": "[2]; ID 1.5 mm", "value": 42.2835, "unit": "mL/min/kg"},
      {"measurement": "AUC", "setting": "[2]; ID 1.5 mm, up to last sampling time point", "value": 116.21, "unit": "ng·h/mL"},
      {"measurement": "Bioavailability", "setting": "[2]; ID 1.5 mm", "value": "56.95^c %"},
      {"measurement": "Bioavailability", "setting": "[2]; ID 1.5 mm, listed as mesylate salt", "value": "~55", "unit": "%"},
      {"measurement": "Cmax", "setting": "[2]; ID 1.5 mm, ~5 mg sildenafil, average", "value": 93.13, "unit": "ng/mL"},
      {"measurement": "MRT", "setting": "[2]; ID 2.0 mm", "value": 2.27, "unit": "h"},
      {"measurement": "Terminal t½", "setting": "[2]; ID 2.0 mm", "value": 3.83, "unit": "h"},
      {"measurement": "Tmax", "setting": "[2]; ID 2.0 mm", "value": 0.18, "unit": "h"},
      {"measurement": "Clearance", "setting": "[2]; ID 2.0 mm", "value": 35.7202, "unit": "mL/min/kg"},
      {"measurement": "AUC", "setting": "[2]; ID 2.0 mm, up to last sampling time point", "value": 133.56, "unit": "ng·h/mL"},
      {"measurement": "Bioavailability", "setting": "[2]; ID 2.0 mm", "value": "66.79^c %"},
      {"measurement": "Cmax", "setting": "[2]; ID 2.0 mm, ~5 mg sildenafil, average", "value": 70.98, "unit": "ng/mL"},
      {"measurement": "Terminal t½", "setting": "[2]; IV", "value": 3.01, "unit": "h"},
      {"measurement": "Clearance", "setting": "[2]; IV", "value": 23.558, "unit": "mL/min/kg"},
      {"measurement": "AUC", "setting": "[2]; [3]", "value": 229.41, "unit": "ng·h/mL"},
      {"measurement": "MRT", "setting": "[2]; [3]", "value": 1.90, "unit": "h"},
      {"measurement": "Cmax", "setting": "[2]; IV, ~5 mg sildenafil, average", "value": 307.35, "unit": "ng/mL"},
      {"measurement": "Tmax", "setting": "[2]; IV, ~5 mg sildenafil, average", "value": "0.0^b hr"},
      {"measurement": "MRT", "setting": "[2]; SC", "value": 2.43, "unit": "h"},
      {"measurement": "Terminal t½", "setting": "[2]; SC", "value": 2.84, "unit": "h"},
      {"measurement": "Tmax", "setting": "[2]; SC", "value": 0.12, "unit": "h"},
      {"measurement": "Clearance", "setting": "[2]; SC", "value": 45.6718, "unit": "mL/min/kg"},
      {"measurement": "AUC", "setting": "[2]; SC, up to last sampling time point", "value": 120.13, "unit": "ng·h/mL"},
      {"measurement": "Bioavailability", "setting": "[2]; SC", "value": "54.77^c %"},
      {"measurement": "Bioavailability", "setting": "[2]; SC, listed as mesylate salt", "value": "~55", "unit": "%"},
      {"measurement": "Cmax", "setting": "[2]; SC, ~5 mg sildenafil, average", "value": 111.28, "unit": "ng/mL"}
    ]},
    {"molecule": "sildenafil acetate", "values": [
      {"measurement": "MRT", "setting": "[2]; ID 1.5 mm", "value": 1.85, "unit": "h"},
      {"measurement": "Terminal t½", "setting": "[2]; ID 1.5 mm", "value": 2.19, "unit": "h"}
    ]}
  ]
}
